Results published in ChEMBL document CHEMBL1201862, “PubChem BioAssay data set” (2004).
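Protocol summary: plate cells (96-well), add compound at 5 concentrations, incubate 48 h, interpolate endpoints linearly. At the GI50, growth is halved.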 The source made the active and inactive calls. Rule as the data show it: active = GI50 up to about 1.1 µM and inactive = higher.

Assays:
Assay in all cases: growth of human tumour cells (NCI), 48 h
[1] = system: DLD-1
[2] = system: SF-295
[3] = system: CCRF-CEM
[4] = system: SF-268
[5] = system: OVCAR-3
[6] = system: SF-539
[7] = system: OVCAR-4
[8] = system: SN12C
[9] = system: HCT-116
[10] = system: SNB-19
[11] = system: XF498
[12] = system: ACHN
[13] = system: NCI-H460
[14] = system: SR
[15] = system: SW-620
[16] = system: DMS-114
[17] = system: NCI-H522
[18] = system: KM12
[19] = system: SK-MEL-2
[20] = system: UACC-257
[21] = system: M19-MEL
[22] = system: A549
[23] = system: HT-29
[24] = system: HCC 2998
[25] = system: NCI-H226
[26] = system: 786-0
[27] = system: SK-MEL-28
[28] = system: RPMI-8226
[29] = system: COLO 205
[30] = system: MOLT-4
[31] = system: NCI-H23
[32] = system: TK-10
[33] = system: UACC-62
[34] = system: UO-31
[35] = system: OVCAR-8
[36] = system: HCT-15
[37] = system: OVCAR-5
[38] = system: DMS-273
[39] = system: CAKI-1
[40] = system: M14
[41] = system: U-251
[42] = system: Malme-3M
[43] = system: SNB-75
[44] = system: IGROV-1
[45] = system: HL-60
[46] = system: K562
[47] = system: LOX IMVI
[48] = system: LXFL 529
[49] = system: RXF 393
[50] = system: EKVX
[51] = system: SK-OV-3
[52] = system: HOP-62
[53] = system: SNB-78
[54] = system: SK-MEL-5
[55] = system: A498
[56] = system: KM-20L2
[57] = system: HOP-92

CC(C)(C)C(=O)OCC(COC(=O)C(C)(C)C)[N+](=O)[O-]
GI50 [1]: > 100 µM (inactive)
GI50 [2]: > 100 µM (inactive)
GI50 [3]: 41.9 µM (inactive)
GI50 [4]: > 100 µM (inactive)
GI50 [5]: > 100 µM (inactive)
GI50 [6]: > 100 µM (inactive)
GI50 [7]: > 100 µM (inactive)
GI50 [8]: > 100 µM (inactive)
GI50 [9]: > 100 µM (inactive)
GI50 [10]: > 100 µM (inactive)
GI50 [11]: > 100 µM (inactive)
GI50 [12]: > 100 µM (inactive)
GI50 [13]: > 100 µM (inactive)
GI50 [14]: 42.4 µM (inactive)
GI50 [15]: > 100 µM (inactive)
GI50 [16]: > 100 µM (inactive)
GI50 [17]: 19.1 µM (inactive)
GI50 [18]: > 100 µM (inactive)
GI50 [19]: > 100 µM (inactive)
GI50 [20]: > 100 µM (inactive)
GI50 [21]: > 100 µM (inactive)
GI50 [22]: > 100 µM (inactive)
GI50 [23]: > 100 µM (inactive)
GI50 [24]: > 100 µM (inactive)
GI50 [25]: > 100 µM (inactive)
GI50 [26]: > 100 µM (inactive)
GI50 [27]: > 100 µM (inactive)
GI50 [28]: 45.3 µM (inactive)
GI50 [29]: 57.1 µM (inactive)
GI50 [30]: 80.2 µM (inactive)
GI50 [31]: > 100 µM (inactive)
GI50 [32]: > 100 µM (inactive)
GI50 [33]: 47.6 µM (inactive)
GI50 [34]: > 100 µM (inactive)
GI50 [35]: > 100 µM (inactive)
GI50 [36]: > 100 µM
GI50 [37]: > 100 µM (inactive)
GI50 [38]: > 100 µM (inactive)
GI50 [39]: > 100 µM (inactive)
GI50 [40]: > 100 µM (inactive)
GI50 [41]: > 100 µM (inactive)
GI50 [42]: > 100 µM (inactive)
GI50 [43]: > 100 µM (inactive)
GI50 [44]: > 100 µM (inactive)
GI50 [45]: 27.4 µM (inactive)
GI50 [46]: 47.6 µM (inactive)
GI50 [47]: > 100 µM (inactive)
GI50 [48]: > 100 µM (inactive)
GI50 [49]: > 100 µM (inactive)
GI50 [50]: > 100 µM (inactive)
GI50 [51]: > 100 µM (inactive)

Cc1ccc(Sc2cc([N+](=O)[O-])cc(Sc3ccc(C)cc3)c2Sc2ccc(C)cc2)cc1
GI50 [1]: > 100 µM (inactive)
GI50 [2]: > 100 µM (inactive)
GI50 [3]: 27.2 µM (inactive)
GI50 [4]: > 100 µM (inactive)
GI50 [5]: > 100 µM (inactive)
GI50 [6]: > 100 µM (inactive)
GI50 [8]: > 100 µM (inactive)
GI50 [9]: > 100 µM (inactive)
GI50 [10]: 66.8 µM (inactive)
GI50 [11]: > 100 µM (inactive)
GI50 [12]: > 100 µM (inactive)
GI50 [13]: > 100 µM (inactive)
GI50 [15]: > 100 µM (inactive)
GI50 [52]: > 100 µM (inactive)
GI50 [16]: > 100 µM (inactive)
GI50 [18]: > 100 µM (inactive)
GI50 [19]: > 100 µM (inactive)
GI50 [20]: > 100 µM (inactive)
GI50 [21]: > 100 µM (inactive)
GI50 [22]: > 100 µM (inactive)
GI50 [23]: > 100 µM (inactive)
GI50 [24]: > 100 µM (inactive)
GI50 [25]: > 100 µM (inactive)
GI50 [26]: 51.6 µM (inactive)
GI50 [53]: > 100 µM (inactive)
GI50 [28]: > 100 µM (inactive)
GI50 [29]: > 100 µM (inactive)
GI50 [30]: 34.1 µM (inactive)
GI50 [32]: > 100 µM (inactive)
GI50 [33]: > 100 µM (inactive)
GI50 [34]: > 100 µM (inactive)
GI50 [35]: 74.6 µM (inactive)
GI50 [36]: > 100 µM
GI50 [37]: > 100 µM (inactive)
GI50 [38]: > 100 µM (inactive)
GI50 [39]: > 100 µM (inactive)
GI50 [40]: > 100 µM (inactive)
GI50 [41]: 46.5 µM (inactive)
GI50 [42]: > 100 µM (inactive)
GI50 [54]: > 100 µM (inactive)
GI50 [43]: 53.5 µM (inactive)
GI50 [55]: > 100 µM (inactive)
GI50 [44]: > 100 µM (inactive)
GI50 [56]: > 100 µM (inactive)
GI50 [45]: > 100 µM (inactive)
GI50 [46]: 48.8 µM (inactive)
GI50 [47]: > 100 µM (inactive)
GI50 [48]: > 100 µM (inactive)
GI50 [49]: 36 µM (inactive)
GI50 [50]: > 100 µM (inactive)

Cc1[nH]c(=O)nc(N/N=C/c2ccc(O)cc2)c1C(=O)Nc1ccc(O)cc1
GI50 [1]: > 100 µM (inactive)
GI50 [3]: > 100 µM (inactive)
GI50 [4]: > 100 µM (inactive)
GI50 [6]: > 100 µM (inactive)
GI50 [7]: > 100 µM (inactive)
GI50 [8]: > 100 µM (inactive)
GI50 [9]: > 100 µM (inactive)
GI50 [11]: > 100 µM (inactive)
GI50 [13]: > 100 µM (inactive)
GI50 [57]: > 100 µM (inactive)
GI50 [14]: > 100 µM (inactive)
GI50 [52]: > 100 µM (inactive)
GI50 [16]: > 100 µM (inactive)
GI50 [17]: > 100 µM (inactive)
GI50 [19]: > 100 µM (inactive)
GI50 [21]: > 100 µM (inactive)
GI50 [24]: > 100 µM (inactive)
GI50 [25]: > 100 µM (inactive)
GI50 [26]: > 100 µM (inactive)
GI50 [53]: 72.8 µM (inactive)
GI50 [27]: > 100 µM (inactive)
GI50 [28]: > 100 µM (inactive)
GI50 [29]: > 100 µM (inactive)
GI50 [30]: > 100 µM (inactive)
GI50 [31]: > 100 µM (inactive)
GI50 [33]: > 100 µM (inactive)
GI50 [34]: > 100 µM (inactive)
GI50 [38]: > 100 µM (inactive)
GI50 [39]: > 100 µM (inactive)
GI50 [40]: > 100 µM (inactive)
GI50 [42]: > 100 µM (inactive)
GI50 [43]: > 100 µM (inactive)
GI50 [55]: > 100 µM (inactive)
GI50 [44]: > 100 µM (inactive)
GI50 [45]: > 100 µM (inactive)
GI50 [46]: > 100 µM (inactive)
GI50 [48]: > 100 µM (inactive)
GI50 [51]: > 100 µM (inactive)
